Data taken from patent US8563542B2 (Cyclacel Limited, priority 2007, dated 2013).

Each molecule was assayed against PLK1 (Homo sapiens, UniProt P53350) (assay: PLK1 protein kinase assay (CDC25C phosphorylation, [γ-32P]-ATP)). Details: Table 2, PLK1 IC50; class symbols; read-out: PLK1 IC50.
Assay type: biochemical

Chain of PLK1 (P53350 whole entry): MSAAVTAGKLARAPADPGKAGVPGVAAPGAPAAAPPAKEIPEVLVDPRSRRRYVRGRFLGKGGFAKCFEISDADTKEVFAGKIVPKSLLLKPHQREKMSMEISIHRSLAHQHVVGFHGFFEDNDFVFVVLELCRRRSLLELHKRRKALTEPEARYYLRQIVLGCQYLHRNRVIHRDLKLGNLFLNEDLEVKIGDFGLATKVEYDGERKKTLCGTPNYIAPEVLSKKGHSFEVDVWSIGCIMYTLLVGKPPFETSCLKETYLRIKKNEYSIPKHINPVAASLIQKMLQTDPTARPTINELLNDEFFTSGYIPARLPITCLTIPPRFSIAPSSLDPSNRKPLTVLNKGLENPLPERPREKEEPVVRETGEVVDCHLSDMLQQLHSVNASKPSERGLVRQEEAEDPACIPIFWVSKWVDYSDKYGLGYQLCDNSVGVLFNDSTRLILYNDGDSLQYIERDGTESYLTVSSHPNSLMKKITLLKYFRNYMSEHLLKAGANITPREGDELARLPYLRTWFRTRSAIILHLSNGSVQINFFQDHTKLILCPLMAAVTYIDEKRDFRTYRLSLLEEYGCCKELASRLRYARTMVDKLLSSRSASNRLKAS

SMILES	IC50
COc1ccc(C(=O)NCC2CCCCN2C)cc1Nc1ncc2c(n1)N(C1CCCC1)CCC(=O)N2C (centres unmarked) [compound 269, 3-(9-Cyclopentyl-5-methyl-6-oxo-6,7,8,9-tetrahydro-5H-pyrimido[4,5-b][1,4]diazepin-2-ylamino)-4-methoxy-N-(1-methyl-piperidin-2-ylmethyl)-benzamide]	< 1000 nM
COc1ccc(C(=O)NCc2ccco2)cc1Nc1ncc2c(n1)N(C1CCCC1)CCC(=O)N2C [compound 273, 3-(9-Cyclopentyl-5-methyl-6-oxo-6,7,8,9-tetrahydro-5H-pyrimido[4,5-b][1,4]diazepin-2-ylamino)-N-furan-2-ylmethyl-4-methoxy-benzamide]	< 1000 nM
CN1CCC(NC(=O)c2ccc(Nc3ncc4c(n3)N(C3CCCC3)CC3(CC3)C(=O)N4C)c(O)c2)CC1 [compound 274, 4-(9-Cyclopentyl-5-methyl-6-oxo-6,7,8,9-tetrahydro-5H-spiro[pyrimido[4,5-b][1,4]diazepin-3,1′-cyclopropane]-2-ylamino)-3-hydroxy-N-(1-methyl-piperidin-4-yl)-benzamide]	< 1000 nM
COc1cc(C(=O)NC2CCN(C)CC2)ccc1Nc1ncc2c(n1)N(c1ccccc1OC)CCC(=O)N2C [compound 277, 3-Methoxy-4-[9-(2-methoxy-phenyl)-5-methyl-6-oxo-6,7,8,9-tetrahydro-5H-pyrimido[4,5-b][1,4]diazepin-2-ylamino]-N-(1-methyl-piperidin-4-yl)-benzamide]	< 10000 nM
COc1cc(C(=O)NC2CN3CCC2CC3)ccc1Nc1ncc2c(n1)N(c1ccccc1OC)CCC(=O)N2C (centres unmarked) [compound 279, N-(1-Aza-bicyclo[2.2.2]oct-3-yl)-3-methoxy-4-[9-(2-methoxy-phenyl)-5-methyl-6-oxo-6,7,8,9-tetrahydro-5H-pyrimido[4,5-b][1,4]diazepin-2-ylamino]-benzamide]	< 10000 nM

Second part, the molecule after the results:

IC50	SMILES
< 1000 nM	COCCNC(=O)c1ccc(OC)c(Nc2ncc3c(n2)N(C2CCCC2)CCC(=O)N3C)c1 [compound 270, 3-(9-Cyclopentyl-5-methyl-6-oxo-6,7,8,9-tetrahydro-5H-pyrimido[4,5-b][1,4]diazepin-2-ylamino)-4-methoxy-N-(2-methoxy-ethyl)-benzamide]
< 1000 nM	COc1ccc(C(=O)NC2CCN(Cc3ccccc3)CC2)cc1Nc1ncc2c(n1)N(C1CCCC1)CCC(=O)N2C [compound 271, N-(1-Benzyl-piperidin-4-yl)-3-(9-cyclopentyl-5-methyl-6-oxo-6,7,8,9-tetrahydro-5H-pyrimido[4,5-b][1,4]diazepin-2-ylamino)-4-methoxy-benzamide]
< 1000 nM	COc1ccc(C(=O)NCCCCO)cc1Nc1ncc2c(n1)N(C1CCCC1)CCC(=O)N2C [compound 272, 3-(9-Cyclopentyl-5-methyl-6-oxo-6,7,8,9-tetrahydro-5H-pyrimido[4,5-b][1,4]diazepin-2-ylamino)-N-(4-hydroxy-butyl)-4-methoxy-benzamide]
< 1000 nM	COc1cc(C(=O)O)ccc1Nc1ncc2c(n1)N(CC1CC1)CC(C)(C)C(=O)N2C [compound 275, 4-(9-Cyclopropylmethyl-5,7,7-trimethyl-6-oxo-6,7,8,9-tetrahydro-5H-pyrimido[4,5-b][1,4]diazepin-2-ylamino)-3-methoxy-benzoic acid]
< 1000 nM	COc1cc(C(=O)NC2CCN(C)CC2)ccc1Nc1ncc2c(n1)N(CC1CC1)CC(C)(C)C(=O)N2C [compound 276, 4-(9-Cyclopropylmethyl-5,7,7-trimethyl-6-oxo-6,7,8,9-tetrahydro-5H-pyrimido[4,5-b][1,4]diazepin-2-ylamino)-3-methoxy-N-(1-methyl-piperidin-4-yl)-benzamide]
< 10000 nM	COc1cc(C(=O)NC2CC(C)(C)N(C)C(C)(C)C2)ccc1Nc1ncc2c(n1)N(c1ccccc1OC)CCC(=O)N2C [compound 278, 3-Methoxy-4-[9-(2-methoxy-phenyl)-5-methyl-6-oxo-6,7,8,9-tetrahydro-5H-pyrimido[4,5-b][1,4]diazepin-2-ylamino]-N-(1,2,2,6,6-pentamethyl-piperidin-4-yl)-benzamide]
